Key:
[1] = tested on: human PHA T cell blasts; assay: Glycolytic switch of PHA T cell blasts ± BIRT377; type: cell-based; settings: ±BIRT377 50 μM
[2] = tested on: human PHA T cell blasts; assay: Degranulation of PHA T cell blasts ± BIRT377; type: cell-based; settings: ±BIRT377 50 μM
[3] = tested on: murine WT and LFA-1^−/− CTLs; assay: Degranulation marker CD107a on murine WT and LFA-1−/− CTLs; type: cell-based; settings: 8 h anti-CD3/anti-CD28 Ab; 1.2 mM Mg^2+ ± BIRT377 50 μM
[4] = tested on: REP T cells; assay: FAK phosphorylation and CD107a degranulation of REP T cells co-incubated with T2 target cells; type: cell-based, human; settings: pulsed T2 target cells; 1.2 mM Mg^2+ ± BIRT377 50 μM
Experimental: FIG. 3: Magnesium regulates LFA-1 mediated T cell activation and cytotoxicity as well BiTE- and CAR T-cell functionality. (a) Glycolytic switch of murine WT and LFA-1^−/− CTLs upon injection of anti-CD3/28 Ab in medium containing 1.2 mM Mg^2+ and 0 mM Mg^2+, presented as quantification of summarized data with n=4 mice. (b) Calcium flux in WT and LFA-1^−/− Jurkat T cells stimulated with anti-CD3 Ab in 1.2 mM and 0 mM Mg^2+ medium, respectively. Cells were loaded with Fluo4, and signal intensity as recorded by plate reader, was normalized to unstimulated baseline values. […] Quantified results of n=3 mice with 3 technical replicates each. (d) Caspase-3 activity in EL4 target cells after co-culture with murine WT and LFA-1^−/− CTLs under the conditions as in (c) for 4 hours, in presence of 10 μg/ml PHA. The effector to target cell ratio was 3:1. Results are quantified of n=3 mice with 3 technical replicates each. (e) Representative CD11a (LFA-1) surface expression on human naïve and EM CD8 T cells, PHA T cell blasts and REP T cells, assessed by flow cytometry. Flow cytometry-based assessment of inactivate LFA-1 with bent conformation (f), extended conformation with β2 leg extension (g), LFA-1 with open head-piece (h), phosphorylation of FAK, expression of degranulation marker CD107a (j) on REP T cells after co-incubation with T2 target cells (pulsed with 10^−8 M 9c peptide) in same condition as in (c). The effector to target cell ratio was 1:1. Data is presented as quantified results of n=5 healthy donors (f, g, h), n=3 healthy donors with 2 technical replicates each or n=1 healthy donor with 4 technical replicates (j). […] Data is presented as quantified results of n=1 healthy donor with 4 technical replicates. […] Cytotoxicity is reported as total area under the curve of the fluorescence driven by incorporation of cytotoxic green reagent in dead target cells (green area per μm^2). […] (p) Abundance of IFNγ in cell culture supernatants corresponding to the conditions depicted in (o) at 24 hours was determined by ELISA (n=8, 3 independent experiments). […]

[5] = tested on: T2 target cells; type: cell-based, human; settings: 45 min; E:T 1:1; 1.2 mM Mg^2+ ± BIRT377 50 μM
[6] = tested on: Ramos target cells; assay: Co-culture assay with Blinatumomab, caspase-3 activity in Ramos target cells; type: cell-based, human; settings: PHA-blasts, 3.5 h co-culture; reported therapeutic range 230-620 pg ml^−1; varying Mg^2+
Experimental: FIG. 3: Magnesium regulates LFA-1 mediated T cell activation and cytotoxicity as well BiTE- and CAR T-cell functionality. (a) Glycolytic switch of murine WT and LFA-1^−/− CTLs upon injection of anti-CD3/28 Ab in medium containing 1.2 mM Mg^2+ and 0 mM Mg^2+, presented as quantification of summarized data with n=4 mice. (b) Calcium flux in WT and LFA-1^−/− Jurkat T cells stimulated with anti-CD3 Ab in 1.2 mM and 0 mM Mg^2+ medium, respectively. Cells were loaded with Fluo4, and signal intensity as recorded by plate reader, was normalized to unstimulated baseline values. […] Quantified results of n=3 mice with 3 technical replicates each. […] Results are quantified of n=3 mice with 3 technical replicates each. (e) Representative CD11a (LFA-1) surface expression on human naïve and EM CD8 T cells, PHA T cell blasts and REP T cells, assessed by flow cytometry. […] Data is presented as quantified results of n=5 healthy donors (f, g, h), n=3 healthy donors with 2 technical replicates each or n=1 healthy donor with 4 technical replicates (j). […] Data is presented as quantified results of n=1 healthy donor with 4 technical replicates. […] Cytotoxicity is reported as total area under the curve of the fluorescence driven by incorporation of cytotoxic green reagent in dead target cells (green area per μm^2). […]

| Substance | Glycolytic switch of PHA T cell blasts [1] | Degranulation of PHA T cell blasts [2] | CD107a degranulation of LFA-1^−/− CTLs [3] | CD107a degranulation of WT CTLs [3] | Degranulation (CD107a) of REP T cells [4] | Target cell killing by REP T cells (caspase-3 activity in T2 target cells) [5] | Blinatumomab-mediated cytotoxicity (caspase-3 activity in Ramos target cells) [6] |
| --- | --- | --- | --- | --- | --- | --- | --- |
| BIRT377 [reference compound] | impaired glycolytic switching | decreased degranulation | unaffected | reduced CTL degranulation | reduced degranulation | reduced |  |
| Blinatumomab: CD3/CD19 bispecific antibody engaging T cells to bind and eliminate CD19-positive cells |  |  |  |  |  |  | strongly dependent on availability of Mg^2+ |
